Tests used:
[1] = system: RSV G protein cleavage in Vero cells; assay: Cleavage of mutant G proteins transiently expressed in Vero cells (immunoblot); type: cell-based
Description: The G gene in the region of amino acid 210 was modified by deleting stretches of amino acids in this region (200-211, 204-213, 206-215, 208-217, or 209-213). […] Most of the mutants almost completely ablate cleavage. They all share amino acids 208-211. However, A206-210 and A206-215, both of which bring together amino acids that can also serve as a cathepsin L cleavage site. For FIG. 6B, the mutated G protein genes were transiently expressed in Vero cells. 24 h post-transfection cells were harvested, lysed and proteins were separated by SDS-PAGE, blotted and probed with mAb to the G protein.
To identify which amino acids are important for cleavage, individual amino acids in and around this region were changed to alanine. These mutant G proteins were transiently expressed in Vero cells and assessed by immunoblot (FIG. 6C). For FIG. 6C, the mutated G protein genes were transiently expressed in Vero cells. 24 hours post-transfection cells were harvested, lysed and proteins were separated by SDS-PAGE, blotted and probed with mAb to the G protein.
The strain A2 G protein plasmid was mutagenized using synthetic double strand gBlock DNA (Integrated DNA Technologies). Van91I (Thermo Fisher) and Xho I (New England Biolabs) were used to digest plasmid and gBlock. Doubly-digested plasmid was isolated by agarose gel electrophoresis. Digested gBlock and eluted plasmid DNAs were ligated with T4 DNA ligase (Promega, Madison, Wis.), and transformed into One Shot MachI-T1 chemically competent bacteria (Life Technologies). Plasmids were extracted using HiSpeed or Plasmid Plus Maxi kits (Qiagen).
Wild type G or frG proteins were expressed in HeLa or Vero cells following plasmid transfection with FuGene HD (Promega) or Lipofectamine LTX (Life Technologies), respectively, in medium containing 2% FBS. In frG experiments, medium was collected and concentrated using Ultracel-10 K centrifugal filters (EMD Millipore, Billerica, Mass.). For other transfection experiments, Vero cells were transfected using Lipofectamine 3000 (Life Technologies) in medium containing 10% FBS. For all transfection experiments, cells were lysed and protein quantified by BCA assay. Equivalent HeLa or Vero cell lysate protein and equivalent volumes of concentrated proteins from the medium were analyzed by immunoblotting.

[2] = system: G protein cleavage in RSV virions; assay: Virion G protein of rgRSV-L208A grown in Vero cells (immunoblot); type: cell-based; settings: purified through sucrose
Description: To test the infectivity of Vero-derived virus with an uncleavable G in HAE cultures, the L208A mutation was incorporated into the whole virus. rgRSV and rgRSV-L208A were grown in HeLa or Vero cells, purified by sucrose gradient, and their virion G proteins assessed by immunoblot (FIG. 7A). For FIG. 7A, the L208A mutant G protein gene was inserted into the full-length RSV genome cDNA, in place of the wt G protein. The mutant RSV was rescued and grown in HeLa or Vero cells, purified by centrifugation through a 35% sucrose cushion, and G protein assessed as before. […] The viruses were titrated on HeLa cells and equivalent infectious units used to inoculate HeLa or HAE cultures. […] For FIG. 7B, virus was titrated on HeLa cells and equivalent infectious units were used to inoculate HAE and HeLa in parallel. Virus-infected (green) cells were counted at 24 (HeLa) or 48 (HAE) hpi.
The full-length RSV cDNA construct, RW30 (Kwilas et al., J Virol (2010) 84:7770-7781), was used as the backbone for a modification of the G protein gene at amino acid 208 from a […] to an alanine. RW30 was digested with restriction enzymes EcoICRI and SacII (Thermo Fisher Scientific Waltham, Mass.) to remove the G gene, and the remaining vector was isolated from an 0.5% agarose gel following electrophoresis and eluted from the gel fragment with the Qiaex II gel elution kit (Qiagen, Valencia, Calif.). […]

L208: RSV strain A2 G protein with alanine substitution for L208
efficiency at inhibiting cleavage (rank among alanine substitutions) [1]: most efficient | resistance to cleavage of alanine substitution G protein mutants ([1]; 24 hours post-transfection): partially to nearly completely resistant to cleavage | virion G protein cleavage [2]: prevention of G protein cleavage

Reference: US10758607B2, “Respiratory syncytial virus having cleavage-resistant G protein and related materials and methods” (The Research Institute at Nationwide Children's Hospital, priority 2015, dated 2020)
